Our source for the IC50 values is patent publication US12679843B2, “Pyrrolopyrimidine amines as complement inhibitors” (BioCryst Pharmaceuticals, Inc., priority 2020, dated 2026).

In this test the target is Factor D (Homo sapiens, UniProt P00746). As to the kind of experiment: Factor D esterolytic assay (Z-Lys-SBzl thioester substrate, DTNB, 405 nm). The format is biochemical. Conditions: substrate Z-Lys-SBzl 1.29 mM, 100 mM HEPES, 500 mM NaCl, pH 7.5, 10% DMSO, tested a minimum of three times. A digest of the protocol: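 Run in pH 7.5 HEPES (100 mM) with 500 mM NaCl and 10% DMSO, with compound preincubated at room temperature or not before adding 1.29 mM Z-Lys-SBzl. Free thiol released by Factor D reacts with DTNB, and rate is followed at 405 nm minus 690 nm over 600 s. IC50 derives from rate-based inhibition, minimum three replicates.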
Chain of Factor D (P00746 26-253): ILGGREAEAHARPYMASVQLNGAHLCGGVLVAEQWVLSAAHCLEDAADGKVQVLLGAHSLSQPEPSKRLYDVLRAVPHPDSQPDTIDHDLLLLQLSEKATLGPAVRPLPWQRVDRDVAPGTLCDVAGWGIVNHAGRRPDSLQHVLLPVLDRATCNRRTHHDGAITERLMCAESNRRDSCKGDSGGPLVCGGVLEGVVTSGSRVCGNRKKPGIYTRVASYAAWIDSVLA
`Cc1ccc2c(c1)c1c(N)ncnc1n2CC(=O)N1[C@H](C(=O)Nc2nc(Br)ccc2C)C[C@@]2(C)C[C@@H]12` [Compound 10b, (1R,3S,5R)-2-(2-(4-amino-6-methyl-9H-pyrimido[4,5-b]indol-9-yl)acetyl)-N-(6-bromo-3-methylpyridin-2-yl)-5-methyl-2-azabicyclo[3.1.0]hexane-3-carboxamide]: the IC50 was less than 100 nM.
The result for `CNc1ncnc2c1cnn2CC(=O)N1CCC[C@H]1C(=O)Nc1cccc(Br)n1` [Compound 75d, (S)—N-(6-bromopyridin-2-yl)-1-(2-(4-(methylamino)-1H-pyrazolo[3,4-d]pyrimidin-1-yl)acetyl)pyrrolidine-2-carboxamide] reads more than 1000 nM.
For the compound `COC(=O)c1ccc2c3c(N)ncnc3n(CC(=O)N3[C@H](C(=O)Nc4cccc(Br)n4)C[C@@]4(C)C[C@@H]34)c2c1` [Compound 42a, methyl 4-amino-9-(2-((1R,3S,5R)-3-((6-bromopyridin-2-yl)carbamoyl)-5-methyl-2-azabicyclo[3.1.0]hexan-2-yl)-2-oxoethyl)-9H-pyrimido[4,5-b]indole-7-carboxylate], the IC50 was less than 100 nM.
With `Cc1cc(F)c(Br)nc1NC(=O)[C@@H]1C[C@H]2C[C@H]2N1C(=O)Cn1c2ncnc(N)c2c2cc(C(F)(F)F)cc(C)c21` [Compound 322c, (1R,3S,5R)-2-(2-(4-amino-8-methyl-6-(trifluoromethyl)-9H-pyrimido[4,5-b]indol-9-yl)acetyl)-N-(6-bromo-5-fluoro-3-methylpyridin-2-yl)-2-azabicyclo[3.1.0]hexane-3-carboxamide] the figure was less than 100 nM; with `CO[C@@H]1C[C@@H](C(=O)Nc2cccc(Br)n2)N(C(=O)Cn2c3ccc(C(F)(F)F)cc3c3c(N)ncnc32)C1` [Compound 248d, (2S,4R)-1-(2-(4-amino-6-(trifluoromethyl)-9H-pyrimido[4,5-b]indol-9-yl)acetyl)-N-(6-bromopyridin-2-yl)-4-methoxypyrrolidine-2-carboxamide], more than 1000 nM.
The result for `Nc1ncnc2c1c1cc(F)ccc1n2CC(=O)N1[C@@H]2C[C@@H]2C[C@H]1C(=O)Nc1cccc(Br)n1` [Compound 32f, (1R,3S,5R)-2-(2-(4-amino-6-fluoro-9H-pyrimido[4,5-b]indol-9-yl)acetyl)-N-(6-bromopyridin-2-yl)-2-azabicyclo[3.1.0]hexane-3-carboxamide] reads less than 100 nM; that for `Nc1ncnc2c1c1ccncc1n2CC(=O)N1[C@@H]2C[C@@H]2C[C@H]1C(=O)Nc1cccc(Br)n1` [Compound 29f, (1R,3S,5R)-2-(2-(4-amino-9H-pyrido[4′,3′:4,5]pyrrolo[2,3-d]pyrimidin-9-yl)acetyl)-N-(6-bromopyridin-2-yl)-2-azabicyclo[3.1.0]hexane-3-carboxamide], less than 100 nM; that for `Nc1ccnc2c1ccn2CC(=O)N1C[C@H](F)C[C@H]1C(=O)NCc1cccc(Cl)c1F` [Compound 131e, (2S,4R)-1-(2-(4-amino-1H-pyrrolo[2,3-b]pyridin-1-yl)acetyl)-N-(3-chloro-2-fluorobenzyl)-4-fluoropyrrolidine-2-carboxamide], 100 to 1000 nM.
With `Nc1ncnc2c1ncn2CC(=O)N1[C@H](C(=O)NCc2cccc(Cl)c2F)C[C@@H]2C[C@@H]21` [Compound 109e, (1S,3S,5S)-2-(2-(6-amino-9H-purin-9-yl)acetyl)-N-(3-chloro-2-fluorobenzyl)-2-azabicyclo[3.1.0]hexane-3-carboxamide], the IC50 fell in the range of 100 to 1000 nM.
With `Nc1ncnc2c1c1cc(-c3ccoc3)ccc1n2CC(=O)N1[C@@H]2C[C@@H]2C[C@H]1C(=O)Nc1cccc(Br)n1` [Compound 275c, (1R,3S,5R)-2-(2-(4-amino-6-(furan-3-yl)-9H-pyrimido[4,5-b]indol-9-yl)acetyl)-N-(6-bromopyridin-2-yl)-2-azabicyclo[3.1.0]hexane-3-carboxamide] the figure was less than 100 nM; with `COc1cc(Cl)cc2c3c(N)ncnc3n(CC(=O)N3[C@H](C(=O)Nc4cccc(Br)n4)C[C@@]4(C)C[C@@H]34)c12` [Compound 239a, (1R,3S,5R)-2-(2-(4-amino-6-chloro-8-methoxy-9H-pyrimido[4,5-b]indol-9-yl)acetyl)-N-(6-bromopyridin-2-yl)-5-methyl-2-azabicyclo[3.1.0]hexane-3-carboxamide], less than 100 nM.
With `Cc1ccc(Br)nc1NC(=O)[C@@H]1C[C@@H](F)CN1C(=O)Cn1c2ccccc2c2c(N)ncnc21` [Compound 3b, (2S,4R)-1-(2-(4-amino-9H-pyrimido[4,5-b]indol-9-yl)acetyl)-N-(6-bromo-3-methylpyridin-2-yl)-4-fluoropyrrolidine-2-carboxamide] the figure was less than 100 nM.
On to `Nc1ncnc2c1ccn2CC(=O)N1[C@@H]2C[C@@H]2C[C@H]1C(=O)NCc1cccc(Cl)c1F` [Compound 81a, (1R,3S,5R)-2-(2-(4-amino-7H-pyrrolo[2,3-d]pyrimidin-7-yl)acetyl)-N-(3-chloro-2-fluorobenzyl)-2-azabicyclo[3.1.0]hexane-3-carboxamide], for which the IC50 was less than 100 nM.
As to `Cc1nc(N)c2cnn(CC(=O)N3C[C@H](F)C[C@H]3C(=O)NCc3cccc(Cl)c3F)c2n1` [Compound 142d, (2S,4R)-1-(2-(4-amino-6-methyl-1H-pyrazolo[3,4-d]pyrimidin-1-yl)acetyl)-N-(3-chloro-2-fluorobenzyl)-4-fluoropyrrolidine-2-carboxamide], the IC50 was more than 1000 nM.
The result for `Nc1ncnc2c1ccn2CC(=O)N1C[C@H](F)C[C@H]1C(=O)NCc1cccc(Cl)c1F` [Compound 64a, (2S,4R)-1-(2-(4-amino-7H-pyrrolo[2,3-d]pyrimidin-7-yl)acetyl)-N-(3-chloro-2-fluorobenzyl)-4-fluoropyrrolidine-2-carboxamide] reads less than 100 nM; that for `Cc1cc(C(F)(F)F)cc2c3c(N)ncnc3n(CC(=O)N3[C@@H]4C[C@@H]4C[C@H]3C(=O)Nc3cccc(Cl)n3)c12` [Compound 291a, (1R,3S,5R)-2-(2-(4-amino-8-methyl-6-(trifluoromethyl)-9H-pyrimido[4,5-b]indol-9-yl)acetyl)-N-(6-chloropyridin-2-yl)-2-azabicyclo[3.1.0]hexane-3-carboxamide], less than 100 nM.
In the case of `Cc1cc2c(N)ncnc2n1CC(=O)N1[C@@H]2C[C@@H]2C[C@H]1C(=O)Nc1cccc(Br)n1` [Compound 158e, (1R,3S,5R)-2-(2-(4-amino-6-methyl-7H-pyrrolo[2,3-d]pyrimidin-7-yl)acetyl)-N-(6-bromopyridin-2-yl)-2-azabicyclo[3.1.0]hexane-3-carboxamide], the IC50 lay within 100 to 1000 nM.
With `Nc1ncnc2c1c(-c1ccccc1Cl)cn2CC(=O)N1C[C@H](F)C[C@H]1C(=O)NCc1cccc(Cl)c1F` [Compound 136a, (2S,4R)-1-(2-(4-amino-5-(2-chlorophenyl)-7H-pyrrolo[2,3-d]pyrimidin-7-yl)acetyl)-N-(3-chloro-2-fluorobenzyl)-4-fluoropyrrolidine-2-carboxamide] the figure was more than 1000 nM; with `Cc1cc(C)c2c(c1)c1c(N)ncnc1n2CC(=O)N1[C@H](C(=O)Nc2cncc(Br)n2)C[C@@]2(C)C[C@@H]12` [Compound 314a, (1R,3S,5R)-2-(2-(4-amino-6,8-dimethyl-9H-pyrimido[4,5-b]indol-9-yl)acetyl)-N-(6-bromopyrazin-2-yl)-5-methyl-2-azabicyclo[3.1.0]hexane-3-carboxamide], less than 100 nM.
As to `Cc1ccc(Br)nc1NC(=O)[C@@H]1C[C@@H](F)CN1C(=O)Cn1cnc2c(N)ncnc21` [Compound 68a, (2S,4R)-1-(2-(6-amino-9H-purin-9-yl)acetyl)-N-(6-bromo-3-methylpyridin-2-yl)-4-fluoropyrrolidine-2-carboxamide], the IC50 fell in the range of 100 to 1000 nM.
The result for `Nc1ncnc2c1c(C(=O)O)cn2CC(=O)N1C[C@H](F)C[C@H]1C(=O)NCc1cccc(Cl)c1F` [Compound 153a, 4-amino-7-(2-((2S,4R)-2-((3-chloro-2-fluorobenzyl)carbamoyl)-4-fluoropyrrolidin-1-yl)-2-oxoethyl)-7H-pyrrolo[2,3-d]pyrimidine-5-carboxylic acid] reads more than 1000 nM.
As for `Cc1cc(C2CC2)cc2c3c(N)ncnc3n(CC(=O)N3[C@@H]4C[C@@H]4C[C@H]3C(=O)Nc3cccc(Br)n3)c12` [Compound 360c, (1R,3S,5R)-2-(2-(4-amino-6-cyclopropyl-8-methyl-9H-pyrimido[4,5-b]indol-9-yl)acetyl)-N-(6-bromopyridin-2-yl)-2-azabicyclo[3.1.0]hexane-3-carboxamide], the half-maximal inhibitory concentration (IC50) is less than 100 nM.
Consider `COc1cc2c(cc1C)c1c(N)ncnc1n2CC(=O)N1[C@H](C(=O)Nc2cccc(Br)n2)C[C@@]2(C)C[C@@H]12` [Compound 329a, (1R,3S,5R)-2-(2-(4-amino-7-methoxy-6-methyl-9H-pyrimido[4,5-b]indol-9-yl)acetyl)-N-(6-bromopyridin-2-yl)-5-methyl-2-azabicyclo[3.1.0]hexane-3-carboxamide], for which the IC50 is less than 100 nM.
The result for `COc1cc2c3c(N)ncnc3n(CC(=O)N3[C@H](C(=O)Nc4cccc(Br)n4)C[C@@]4(C)C[C@@H]34)c2cc1F` [Compound 331a, (1R,3S,5R)-2-(2-(4-amino-7-fluoro-6-methoxy-9H-pyrimido[4,5-b]indol-9-yl)acetyl)-N-(6-bromopyridin-2-yl)-5-methyl-2-azabicyclo[3.1.0]hexane-3-carboxamide] reads less than 100 nM.
The result for `Cc1cc(C(F)(F)F)cc2c3c(N)ncnc3n(CC(=O)N3[C@H](C(=O)Nc4cncc(Cl)n4)C[C@@]4(C)C[C@@H]34)c12` [Compound 327c, (1R,3S,5R)-2-(2-(4-amino-8-methyl-6-(trifluoromethyl)-9H-pyrimido[4,5-b]indol-9-yl)acetyl)-N-(6-chloropyrazin-2-yl)-5-methyl-2-azabicyclo[3.1.0]hexane-3-carboxamide] reads less than 100 nM.

What is called IC50 is the concentration that gives 50% inhibition.
